# Assay results reported in paper PMC12155096 (International Journal of Molecular Sciences, 2025).
# Structures can show the parent of a compound that is named as a salt. Where two headings read alike, the source gives them in different places.
# Legend:
# [1] = biological target: Photinus pyralis (firefly) luciferase (Photinus pyralis, UniProt P08659); experiment: biochemical; assay type: biochemical
# [2] = biological target: T1, human CYP1A2 (Homo sapiens, UniProt P05177); experiment: biochemical
# T1 sequence (P05177 1-516): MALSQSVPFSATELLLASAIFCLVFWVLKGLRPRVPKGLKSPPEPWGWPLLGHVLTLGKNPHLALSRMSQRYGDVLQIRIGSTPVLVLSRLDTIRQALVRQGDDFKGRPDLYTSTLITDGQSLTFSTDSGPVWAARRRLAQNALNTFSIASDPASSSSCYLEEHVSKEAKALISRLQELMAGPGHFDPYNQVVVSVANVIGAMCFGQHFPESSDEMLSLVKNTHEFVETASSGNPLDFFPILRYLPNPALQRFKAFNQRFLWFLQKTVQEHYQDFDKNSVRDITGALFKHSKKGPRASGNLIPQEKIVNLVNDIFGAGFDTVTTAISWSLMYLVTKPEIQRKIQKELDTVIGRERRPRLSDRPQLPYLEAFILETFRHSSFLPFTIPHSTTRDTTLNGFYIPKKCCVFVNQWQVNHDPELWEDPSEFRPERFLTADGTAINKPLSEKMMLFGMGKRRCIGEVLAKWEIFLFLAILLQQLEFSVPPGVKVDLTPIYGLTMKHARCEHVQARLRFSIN
# [3] = biological target: T2, human CYP2C9 (Homo sapiens, UniProt P11712); experiment: biochemical
# [4] = biological target: T3, human CYP2C19 (Homo sapiens, UniProt P33261); experiment: biochemical
# [5] = biological target: human CYP2D6 (Homo sapiens, UniProt P10635); experiment: biochemical
# [6] = biological target: T1, human CYP1A2
# [7] = biological target: T2, human CYP2C9
# [8] = biological target: T3, human CYP2C19
# [9] = CYP1A2 IC50 (half-maximal inhibitory concentration)
# [10] = CYP2C9 IC50 (half-maximal inhibitory concentration)
# [11] = CYP2C19 IC50 (half-maximal inhibitory concentration)
# [12] = CYP2D6 IC50 (half-maximal inhibitory concentration)
# T2 sequence (P11712 whole entry): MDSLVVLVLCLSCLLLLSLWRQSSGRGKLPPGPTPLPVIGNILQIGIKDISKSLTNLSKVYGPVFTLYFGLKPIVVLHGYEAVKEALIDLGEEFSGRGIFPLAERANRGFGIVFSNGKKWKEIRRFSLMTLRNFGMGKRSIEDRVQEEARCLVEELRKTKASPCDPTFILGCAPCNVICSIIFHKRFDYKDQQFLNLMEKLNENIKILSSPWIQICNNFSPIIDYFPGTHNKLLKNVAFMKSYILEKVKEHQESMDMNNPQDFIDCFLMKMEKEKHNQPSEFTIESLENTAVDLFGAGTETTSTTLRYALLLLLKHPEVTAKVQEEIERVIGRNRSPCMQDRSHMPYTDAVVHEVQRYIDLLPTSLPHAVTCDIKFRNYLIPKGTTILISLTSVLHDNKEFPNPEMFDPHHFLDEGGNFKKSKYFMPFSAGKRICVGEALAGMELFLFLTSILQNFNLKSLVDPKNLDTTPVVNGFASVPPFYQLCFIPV
# Sequence of Photinus pyralis (firefly) luciferase (P08659 whole entry): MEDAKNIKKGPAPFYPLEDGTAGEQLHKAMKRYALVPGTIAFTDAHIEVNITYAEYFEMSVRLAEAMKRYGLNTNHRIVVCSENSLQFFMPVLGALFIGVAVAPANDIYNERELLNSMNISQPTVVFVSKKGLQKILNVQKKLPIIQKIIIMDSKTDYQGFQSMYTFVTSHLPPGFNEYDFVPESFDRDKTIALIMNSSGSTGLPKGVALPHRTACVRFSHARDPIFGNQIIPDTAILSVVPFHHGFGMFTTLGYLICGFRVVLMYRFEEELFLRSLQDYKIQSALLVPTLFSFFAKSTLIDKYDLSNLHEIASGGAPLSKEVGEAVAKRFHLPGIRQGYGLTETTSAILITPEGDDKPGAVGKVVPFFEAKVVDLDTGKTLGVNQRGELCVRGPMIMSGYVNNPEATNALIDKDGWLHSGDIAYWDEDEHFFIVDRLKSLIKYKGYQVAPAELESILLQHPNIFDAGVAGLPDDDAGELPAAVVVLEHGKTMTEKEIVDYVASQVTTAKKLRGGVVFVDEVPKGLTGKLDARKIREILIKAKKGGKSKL
# Sequence of human CYP2D6 (P10635 whole entry): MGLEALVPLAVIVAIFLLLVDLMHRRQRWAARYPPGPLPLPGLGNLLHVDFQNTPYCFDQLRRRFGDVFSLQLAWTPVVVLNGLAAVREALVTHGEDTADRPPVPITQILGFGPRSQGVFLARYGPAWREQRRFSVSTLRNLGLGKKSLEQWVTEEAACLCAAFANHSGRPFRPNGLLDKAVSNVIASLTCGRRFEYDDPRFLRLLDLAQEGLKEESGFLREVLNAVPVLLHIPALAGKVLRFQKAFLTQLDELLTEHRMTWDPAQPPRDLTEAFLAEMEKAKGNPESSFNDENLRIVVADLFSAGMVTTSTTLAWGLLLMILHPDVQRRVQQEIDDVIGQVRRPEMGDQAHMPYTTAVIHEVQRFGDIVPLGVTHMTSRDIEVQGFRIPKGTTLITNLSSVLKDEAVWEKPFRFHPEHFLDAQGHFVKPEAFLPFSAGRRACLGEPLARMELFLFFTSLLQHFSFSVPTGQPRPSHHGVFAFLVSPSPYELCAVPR
# T3 sequence (P33261 whole entry): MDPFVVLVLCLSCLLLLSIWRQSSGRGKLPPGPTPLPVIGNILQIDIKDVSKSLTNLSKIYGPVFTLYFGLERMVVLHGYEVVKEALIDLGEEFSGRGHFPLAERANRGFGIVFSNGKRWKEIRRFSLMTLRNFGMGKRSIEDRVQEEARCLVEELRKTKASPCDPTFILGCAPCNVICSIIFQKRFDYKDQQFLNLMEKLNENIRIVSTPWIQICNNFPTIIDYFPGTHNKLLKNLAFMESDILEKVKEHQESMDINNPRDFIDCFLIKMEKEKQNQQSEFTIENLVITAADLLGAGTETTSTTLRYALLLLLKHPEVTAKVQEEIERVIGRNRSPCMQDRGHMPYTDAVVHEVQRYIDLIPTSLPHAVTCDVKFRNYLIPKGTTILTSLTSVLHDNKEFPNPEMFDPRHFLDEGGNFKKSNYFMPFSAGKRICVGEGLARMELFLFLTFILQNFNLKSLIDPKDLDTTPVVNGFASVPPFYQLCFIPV
smiles,measurement,setting,value
Nc1ccc(C(=O)N2CC3CC(CN(Cc4ccccc4)C3)C2)cc1 [Ambasilide],Luciferase IC50,[1],Inactive
same,IC50,[2],30.9 µM
same,IC50,[3],22.7 µM
same,IC50,[4],30 µM
same,IC50,[5],20.1 µM
C[C@@H](O[C@H]1OCCN(Cc2n[nH]c(=O)[nH]2)[C@H]1c1ccc(F)cc1)c1cc(C(F)(F)F)cc(C(F)(F)F)c1 [Aprepitant],Luciferase IC50,[1],Inactive
same,CYP1A2 IC50,[6],Inactive
same,IC50,[3]; CYP2C9 IC50,13.8 µM
same,IC50,[4]; CYP2C19 IC50,23.9 µM
same,IC50,[5]; CYP2D6 IC50,25 µM
CCN(CC)CCOC(=O)C(C)(c1ccccc1)c1ccccc1 [Aprofene],Luciferase IC50,[1],Inactive
same,CYP1A2 IC50,[6],Inactive
same,IC50,[3],12.9 µM
same,IC50,[4]; CYP2C19 IC50,12.3 µM
same,IC50,[5],1.57 µM
CCC1(c2cnc[nH]2)Cc2ccccc2C1 [Atipamezole],Luciferase IC50,[1],Inactive
same,IC50,[2],11 ± 2.84 µM
same,IC50,[3],1.21 ± 0.3 µM
same,IC50,[4],1.42 ± 0.4 µM
same,IC50,[5],0.87 ± 0.1 µM
CC(CC1c2ccccc2CCc2ccccc21)CN(C)C (stereo not shown) [Butriptyline],IC50,[1],8.71 µM
same,CYP1A2 IC50,[6],Inactive
same,CYP2C9 IC50,[7],Inactive
same,IC50,[4]; CYP2C19 IC50,8.39 µM
same,IC50,[5]; CYP2D6 IC50,0.97 µM
Nc1ccc2c(c1)CN1C(=O)c3ccccc3C1=N2 [Daniquidone],IC50,[1],0.36 µM
same,IC50,[2]; [9],0.67 µM
same,IC50,[3]; [10],5.05 µM
same,IC50,[4]; [11],2.8 µM
same,IC50,[5]; [12],4.39 µM
CN(C)[C@@H](CCOc1cccc2ccccc12)c1ccccc1 [Dapoxetine],Luciferase IC50,[1],Inactive
same,IC50,[2],5.87 ± 1.73 µM
same,IC50,[3],16.8 ± 2.32 µM
same,IC50,[4],1.21 ± 0.3 µM
same,IC50,[5],0.98 ± 0.11 µM
Cc1cccc(Cc2c[nH]cn2)c1C [Detomidine hydrochloride],Luciferase IC50,[1],Inactive
same,IC50,[2]; CYP1A2 IC50,1.15 µM
same,IC50,[3]; CYP2C9 IC50,0.41 µM
same,IC50,[4]; CYP2C19 IC50,1.96 µM
same,IC50,[5]; CYP2D6 IC50,2.37 µM
COc1ccc([C@@H]2Sc3ccccc3N(CCN(C)C)C(=O)[C@@H]2OC(C)=O)cc1 [Diltiazem],Luciferase IC50 (half-maximal inhibitory concentration),[1],Inactive
same,CYP1A2 IC50 (half-maximal inhibitory concentration),[6],Inactive
same,CYP2C9 IC50 (half-maximal inhibitory concentration),[7],Inactive
same,CYP2C19 IC50 (half-maximal inhibitory concentration),[8],Inactive
same,IC50,[5]; [12],19.1 µM
[O-][n+]1ccccc1SSc1cccc[n+]1[O-] [Dipyrithione],IC50,[1],0.45 µM
same,AC50,[2]; CYP1A2 AC50 (half-maximal activity concentration),3.2 µM
same,IC50,[2]; CYP1A2 IC50,3.2 µM
same,AC50,[3]; CYP2C9 AC50 (half-maximal activity concentration),1.72 µM
same,IC50,[3]; CYP2C9 IC50,1.72 µM
same,AC50,[4]; CYP2C19 AC50 (half-maximal activity concentration),0.79 µM
same,IC50,[4]; CYP2C19 IC50,0.79 µM
same,AC50,[5]; CYP2D6 AC50 (half-maximal activity concentration),1.66 µM
same,IC50,[5]; CYP2D6 IC50,1.66 µM
CC1=C(C)C(=O)C(CCCCC#CCCCC#CCO)=C(C)C1=O [Docebenone],Luciferase IC50,[1],Inactive
same,IC50,[2]; CYP1A2 IC50,3.27 µM
same,IC50,[3]; CYP2C9 IC50,5.22 µM
same,IC50,[4]; CYP2C19 IC50,11.4 µM
same,IC50,[5]; CYP2D6 IC50,25.8 µM
CCN(CC)CCOC(=O)C(c1ccccc1)C1CCCCC1 (stereo not shown) [Drofenine hydrochloride],Luciferase IC50,[1],Inactive
same,IC50,[2]; CYP1A2 IC50,5.85 µM
same,IC50,[3]; CYP2C9 IC50,26 µM
same,IC50,[4]; CYP2C19 IC50,18.8 µM
same,IC50,[5]; CYP2D6 IC50,1.19 µM
CN1C[C@H](C(=O)N[C@]2(C)O[C@@]3(O)[C@@H]4CCCN4C(=O)[C@H](Cc4ccccc4)N3C2=O)C=C2c3cccc4[nH]cc(c34)C[C@H]21 [Ergotamine D-tartrate],IC50,[1],42.1 µM
same,IC50,[2]; [9],22.6 µM
same,IC50,[3]; [10],16.5 µM
same,IC50,[4]; [11],37.4 µM
same,IC50,[5]; [12],31.3 µM
CC[n+]1c(-c2ccccc2)c2cc(N)ccc2c2ccc(N)cc21 [Ethidium bromide],Luciferase IC50,[1],Inactive
same,IC50,[2]; CYP1A2 IC50,9.62 µM
same,IC50,[3]; CYP2C9 IC50,47.7 µM
same,IC50,[4]; CYP2C19 IC50,13.1 µM
same,IC50,[5]; CYP2D6 IC50,0.93 µM
CCCCCCCCCCCCCCCC[N+](C)(C)CC [Ethylhexadecyldimethylammonium bromide],Luciferase IC50,[1],Inactive
same,IC50,[2],74.4 ± 9.49 µM
same,IC50,[3],83.1 ± 5.63 µM
same,IC50,[4],89.6 µM
same,IC50,[5],0.61 ± 0.04 µM
CN(C)c1ccc(N=NS(=O)(=O)O)cc1 [Fenaminosulf],IC50,[1],44.1 µM
same,IC50,[2],5.75 µM
same,IC50,[3],7.38 µM
same,IC50,[4],1.36 µM
same,IC50,[5],12.2 µM
CC(NCCC(c1ccccc1)c1ccccc1)c1ccccc1 (stereo not shown) [Fendiline hydrochloride],Luciferase IC50,[1],Inactive
same,CYP1A2 IC50,[6],Inactive
same,IC50,[3]; CYP2C9 IC50,15.5 µM
same,IC50,[4]; CYP2C19 IC50,5.65 µM
same,IC50,[5]; CYP2D6 IC50,0.23 µM
COP(=S)(OC)Oc1ccc(SC)c(C)c1 [Fenthion],IC50,[1],44.8 µM
same,IC50,[2]; CYP1A2 IC50,2.53 µM
same,IC50,[3],6.1 µM
same,IC50,[4]; CYP2C19 IC50,0.91 µM
same,IC50,[5],37.2 µM
